Assay [1] has as its system Human-derived hepatocellular carcinoma cell line Hep3B2.1-7. Put plainly: Antitumor action against human hepatocellular carcinoma cell line Hep3B2.1-7 transplanted subcutaneously in nude mice. In kind it is in vivo. The conditions noted are these: Hep3B2.1-7 xenograft. The procedure: (§1) Five nude mice (CAnN.Cg-Foxnlnu/CrlCrlj, female, CHARLES RIVER LABORATORIES JAPAN, INC.) were used in each group, and the antitumor effect in a case where compound A was administered was evaluated.
Human-derived hepatocellular carcinoma cell line Hep3B2.1-7 (obtained from ATCC) cells were suspended in a Hank's Balanced Salt Solution (HBSS) so that the concentration of the cells was 4×10^7 cells/mL. Into the suspension, Matrigel™ Matrix (Becton, Dickinson and Company, Japan) in the same volume as that of the suspension was added, and the obtained mixture was sufficiently mixed. The mixture in an amount of 0.1 mL was transplanted into the subcutaneous part in the right flank of each mouse, and the mouse was subjected to the antitumor effect evaluation.
On 19 days after the transplantation, the longest diameter and the short axis of the tumor were measured with an electronic digital caliper (Digimatic™ Caliper, Mitutoyo Corporation). The mice were divided into groups so that the average values of the tumor volumes in the respective groups were substantially equal to each other. In addition, the tumor volume was calculated in accordance with the following equation. Tumor volume (mm^3)=longest diameter (mm)×short axis (mm)×short axis (mm)/2
Compound A was dissolved in purified water so that the concentration of compound A was 5 mg/mL.
Compound A was administered to each of the mice in the respective groups at a dose of 100 mg/kg once daily for 5 days. After that, compound A was withdrawn for 2 days, and then administered orally for 4 days. In this regard, the volume to be administered was set to 20 mL/kg, and to the control group, purified water in the same volume was administered.
On the technique in general: A xenograft is tissue or cells of one species grown in another, often human tumour cells in immunodeficient mice.

Assay [2] has as its system HuH-7. Briefly: Proliferation of hepatocellular carcinoma cell line HuH-7 (CellTiter Glo-2.0). The assay is classed as cell-based. The note with it: Homo sapiens, 144 h; HuH-7, cultured for 6 days, 10% FBS. The procedure:
(§2) As the human hepatocellular carcinoma cell line, SNU-398, Li-7, Hep3B2.1-7, and HuH-7 were used. In this regard, SNU-398, and Hep3B2.1-7 were obtained from American Type Culture Collection (ATCC), Li-7 was obtained from Cell Resource Center for Biomedical Research, Institute of Development, Aging and Cancer, Tohoku University, and HuH-7 was obtained from JCRB Cell Bank, respectively.
(§3) For each cell line, maintenance culture was performed by using the following medium.
A DMEM-low glucose medium (Wako Pure Chemical Industries, Ltd.) containing 10% FBS and penicillin/streptomycin […]
(§4) The number of cells in each well after the culture was calculated by measuring the intracellular ATP level with the emission intensity using CellTiter Glo-2.0 (Promega Corporation, catalog number: G9243).
(§5) CellTiter Glo-2.0 was added in an amount of 50 μL into each well, and the mixture was mixed for 10 minutes with a plate mixer. After that, the mixture was allowed to react at room temperature for 10 minutes, and then the luminescence was measured with Multilabel Reader (ARVO X4, PerkinElmer, Inc.) The luminescence value ratio in the presence of a compound A was determined, assuming that the luminescence value in a case where Compound A had not added was set to 100% and the luminescence value in a well where cells had not been present was set to 0%. […]
In general terms: Cellular ATP, detected with luciferase, serves as a proxy for viable cell number.

The subject of assay [3] is Hep3B2.1-7. Briefly: Proliferation of hepatocellular carcinoma cell line Hep3B2.1-7 (CellTiter Glo-2.0). In kind it is cell-based. The conditions noted are these: Homo sapiens, 144 h; Hep3B2.1-7, cultured for 6 days, 10% FBS. The procedure: as §2, §3
An EMEM medium (Wako Pure Chemical Industries, Ltd.) containing 10% FBS and penicillin/streptomycin […]
as §4, §5

Assay [4] relates to Li-7. Briefly: Proliferation of hepatocellular carcinoma cell line Li-7 (CellTiter Glo-2.0). The note with it: Homo sapiens, 144 h; Li-7, cultured for 6 days, 10% FBS. In kind it is cell-based. The procedure:
as §2, §3
(§6) An RPMI-1640 medium (Wako Pure Chemical Industries, Ltd.) containing 10% fetal bovine serum (FBS) and penicillin/streptomycin […]
as §4, §5

Assay [5] concerns SNU-398. Put plainly: Proliferation of hepatocellular carcinoma cell line SNU-398 (CellTiter Glo-2.0). The assay is classed as cell-based. The conditions noted are these: Homo sapiens, 144 h; SNU-398, cultured for 6 days, 10% FBS. The procedure: as §2, §3, §6, §4, §5
Assay [6] has as its system Human-derived hepatocellular carcinoma cell line SNU-398. Put plainly: Antitumor action against human hepatocellular carcinoma cell line SNU-398 transplanted subcutaneously in nude mice. In kind it is in vivo. The note with it: SNU-398 xenograft. The procedure:
as §1
(§7) Human-derived hepatocellular carcinoma cell line SNU-398 (obtained from ATCC) cells were suspended in a HBSS so that the concentration of the cells was 5×10^7 cells/mL. Into the suspension, Matrigel™ Matrix (Becton, Dickinson and Company, Japan) in the same volume as that of the suspension was added, and the obtained mixture was sufficiently mixed. The mixture in an amount of 0.1 mL was transplanted into the subcutaneous part in the right flank of each mouse, and the mouse was subjected to the antitumor effect evaluation.
On 9 days after the transplantation, the longest diameter and the short axis of the tumor were measured with an electronic digital caliper (Digimatic™ Caliper, Mitutoyo Corporation). The mice were divided into groups so that the average values of the tumor volumes in the respective groups were nearly equal to each other. In addition, the tumor volume was calculated in accordance with the following equation. Tumor volume (mm^3)=longest diameter (mm)×short axis (mm)×short axis (mm)/2
Compound A was dissolved in purified water so that the concentration of compound A was […] or 2.5 mg/mL.
Compound A was administered orally to each of the mice in the respective groups at a dose of 25 mg/kg or 50 mg/kg once daily for 11 days. In this regard, the volume to be administered was set to 20 mL/kg. The control group was untreated.

For assay [7], the system named is Human-derived hepatocellular carcinoma cell line HuH-7. Briefly: Antitumor action against human hepatocellular carcinoma cell line HuH-7 transplanted subcutaneously in nude mice. In kind it is in vivo. The note with it: HuH-7 xenograft. The procedure:
as §1
as §7, with “HuH-7” for “SNU-398”, “JCRB Cell Bank)” for “ATCC)”, “DMEM medium (Wako Pure Chemical Industries, Ltd.) containing 10% bovine serum” for “HBSS”, “8.0×10^7” for “5×10^7”
On 11 days after the transplantation, the longest diameter and the short axis of the tumor were measured with an electronic digital caliper (Digimatic™ Caliper, Mitutoyo Corporation). The mice were divided into groups so that the average values of the tumor volumes in the respective groups were nearly equal to each other. In addition, the tumor volume was calculated in accordance with the following equation. Tumor volume (mm^3)=longest diameter (mm)×short axis (mm)×short axis (mm)/2
Compound A was dissolved in purified water so that the concentration of compound A was 2.5 mg/mL.
Compound A was administered to each of the mice in the respective groups at a dose of 50 mg/kg once daily for 5 days. After that, compound A was withdrawn for 2 days, and then administered orally for 3 days. In this regard, the volume to be administered was set to 20 mL/kg, and to the control group, purified water in the same volume was administered.

Where [8] appears, read: Day 0 (baseline), 50 mg/kg group.

Broadly, the IC50 is the concentration that gives 50% inhibition. Regarding `CNC(=O)n1ccc2cc(Oc3ccnc(NC(=O)c4ccc(C5CCN(CCO)CC5)cc4)c3)c(OCCOC)cc21` [Compound A, 5-((2-(4-(1-(2-hydroxyethyl)piperidin-4-yl)benzamide)pyridin-4-yl)oxy)-6-(2-methoxyethoxy)-N-methyl-1H-indole-1-carboxamide sesquisuccinate], the Tumor volume in assay [1] (Day 0 (baseline), 100 mg/kg group) was found to be 417.4 mm^3; in assay [1] (Day 3, 100 mg/kg once daily, oral) it was 504.0 mm^3; in assay [1] (Day 7, 100 mg/kg once daily for 5 days, withdrawn 2 days) it was 630.4 mm^3; in assay [1] (Day 11, 100 mg/kg once daily for 5 days, withdrawn 2 days, then 4 days, oral) it was 862.3 mm^3; in assay [6] (Day 0 (baseline), 25 mg/kg group), 154.5 mm^3; in assay [6] (setting [8]), 153.9 mm^3. For the same molecule, the Tumor volume came out at 516.4 mm^3 in assay [6] (Day 4, 25 mg/kg once daily, oral); 443.2 mm^3 in assay [6] (Day 4, 50 mg/kg once daily, oral); 942.2 mm^3 in assay [6] (Day 7, 25 mg/kg once daily, oral); 779.0 mm^3 in assay [6] (Day 7, 50 mg/kg once daily, oral); 1280.1 mm^3 in assay [6] (Day 11, 25 mg/kg once daily for 11 days, oral); 1066.1 mm^3 in assay [6] (Day 11, 50 mg/kg once daily for 11 days, oral). The Tumor volume in assay [7] (setting [8]) is on record as 148.1 mm^3; in assay [7] (Day 3, 50 mg/kg once daily, oral), 409.2 mm^3; in assay [7] (Day 7, 50 mg/kg once daily for 5 days, withdrawn 2 days), 939.9 mm^3; in assay [7] (Day 10, 50 mg/kg once daily for 5 days, withdrawn 2 days, then 3 days, oral) it was 1400.9 mm^3. Moreover, the IC50 in assay [2] amounted to 249 nM; in assay [3] it was 77 nM; in assay [4] it was 63 nM; in assay [5], 26 nM. Also, the “Increase in the tumor volume” value in assay [6] (25 mg/kg or 50 mg/kg once daily for 11 days, oral) is listed as “suppressed in a dose-dependent manner”.

(Values after patent US11219619B2, “Therapeutic agent for hepatocellular carcinoma” (Eisai R&D Management Co., Ltd., priority 2018, dated 2022).)
